Results on ten molecules are retold here after patent publication US10280146B2, “Pyrimidone compounds used as Lp-PLA2 inhibitors and pharmaceutical compositions thereof” (Shanghai Institute of Materia Medica, Chinese Academy of …, priority 2014, dated 2019).

Each structure is given as a SMILES string.

Assay [1] deals with STZ-induced diabetic rats. The experiment in a line: Retinal thickness of STZ-induced diabetic rats, long-term administration. The note with it: 25 mg/kg/day oral, 4 weeks. In kind it is in vivo, rat. An excerpt: Test compound: […] Positive control: Darapladib, dissolved in ultrapure water. […] All SD rats were preconditioned for 3-5 days. […] The diabetic model was established when the blood glucose of the rats was more than 10 mmol/L. […] The rats were administrated once a day. […] The eyeballs of the rats were removed, frozen and sectioned and the thickness of each slice was 8 μm. The slice was stained with conventional hematoxylin/eosin and photographed with a 400-fold optical microscope (Eclipse 80i, Nikon). The thickness of the retina was analyzed using the software Image-Pro plus 6.0. Five points were selected in each photo. Statistical analysis was performed with the EXCEL 2007 software. […] The experiment results were evaluated by Student T test.

The target in assay [2] is T1, Lp-PLA2 (human recombinant enzyme as the source of enzyme) (Homo sapiens, UniProt Q13093).
T1 sequence (Q13093 22-441): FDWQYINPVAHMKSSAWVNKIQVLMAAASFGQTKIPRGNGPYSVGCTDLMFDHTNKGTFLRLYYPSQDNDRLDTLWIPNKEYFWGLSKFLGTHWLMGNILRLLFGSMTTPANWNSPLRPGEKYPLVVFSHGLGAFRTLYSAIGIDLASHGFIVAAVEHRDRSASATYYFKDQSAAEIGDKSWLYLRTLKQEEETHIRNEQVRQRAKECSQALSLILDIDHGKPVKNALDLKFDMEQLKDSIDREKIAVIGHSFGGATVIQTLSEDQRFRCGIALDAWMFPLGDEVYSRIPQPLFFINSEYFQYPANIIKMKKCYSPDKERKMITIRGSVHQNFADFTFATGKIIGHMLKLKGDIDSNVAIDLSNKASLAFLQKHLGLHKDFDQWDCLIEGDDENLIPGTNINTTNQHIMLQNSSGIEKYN
The experiment in a line: In vitro inhibitory activity on Lp-PLA2, human recombinant enzyme (2-thio-PAF/DTNB). In kind it is biochemical. The settings on record: read-out: inhibitory ratio, % on Lp-PLA2 (human recombinant enzyme as the source of enzyme); for inhibition at 0.01 µM: 10 nM compound; for inhibition at 0.1 µM: 100 nM compound. The protocol:
(§1) 0.1M Tris-HCl, 1 mM EGTA, PH 7.2
(§2) Anhydrous ethanol was used as solvent to make a 25 mg/ml mother liquor. The solution was aliquoted, stored at −80° C. and diluted 900 times before use (about 50 μM of concentration)
(§3) 3) DTNB (5,5′-dithio-bis-(2-nitrobenzoic acid), Sigma, Lot D8130)
(§4) The solution was prepared just before use.
(§5) 4) Compound was dissolved in DMSO to a suitable concentration.
(§6) Lp-PLA2 activity was determined by using 2-thio-PAF as substrate. The thiol group produced upon the hydrolysis of 2-thio-PAF can react with DTNB to generate a yellow substance. The optical density at 414 nm can be detected to reflect Lp-PLA2 activity.
1.2 Determination of the Inhibitory Activity of the Compounds on Lp-PLA2 (Human Recombinant Enzyme as the Source of Enzyme) (In Vitro)
1) The corresponding reagents were added according to Table 3 and mixed uniformly by shaking.
(§7) 2) 10 μL of DTNB was added to each well.
(§8) 3) 150 μL of 2-thio-PAF was added to each well and shaken for 15 s on a microplate reader to mix the liquid in the well uniformly.

In assay [3] the target is T2, Lp-PLA2 (rabbit serum as the source of enzyme) (Oryctolagus cuniculus, UniProt G1SE06).
T2 construct: Rabbit Serum as the Source of Enzyme; from tissue; host or cells: rabbit serum
T2 sequence (G1SE06 22-423): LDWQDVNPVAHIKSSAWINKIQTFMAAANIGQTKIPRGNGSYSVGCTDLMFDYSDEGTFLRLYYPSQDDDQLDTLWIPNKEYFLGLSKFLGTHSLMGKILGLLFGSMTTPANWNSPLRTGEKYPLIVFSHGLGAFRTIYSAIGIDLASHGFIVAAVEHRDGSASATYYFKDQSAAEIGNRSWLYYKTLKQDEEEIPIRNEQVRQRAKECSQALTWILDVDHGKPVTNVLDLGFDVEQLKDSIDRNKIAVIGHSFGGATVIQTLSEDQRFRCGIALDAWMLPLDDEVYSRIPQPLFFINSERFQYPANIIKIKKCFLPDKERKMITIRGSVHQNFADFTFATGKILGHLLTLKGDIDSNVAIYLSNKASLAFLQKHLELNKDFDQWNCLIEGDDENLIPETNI
The experiment in a line: In vitro inhibitory activity on Lp-PLA2, rabbit serum as the source of enzyme (2-thio-PAF/DTNB). It is filed as biochemical. The settings on record: read-out: Inhibitory ratio, % on Lp-PLA2 (rabbit serum as the source of enzyme); for inhibition at 0.01 µM: 10 nM compound, — = no inhibitory activity; for inhibition at 0.1 µM: 100 nM compound; for inhibition at 1 µM: 1 μM compound. The protocol:
as §1, §2, §3, §4, §5, §6
1.1 Determination of the Inhibitory Activity of the Compounds on Lp-PLA2 (Rabbit Serum as the Source of Enzyme) (In Vitro)
1) The corresponding reagents were added according to Table 1 and mixed uniformly by shaking.
as §7, §8

Assay [4] deals with Lp-PLA2 (rat serum as the source of enzyme). The assay is described as follows: In vitro inhibitory activity on Lp-PLA2, rat serum as the source of enzyme (2-thio-PAF/DTNB). Also noted: key: “—” indicates no inhibitory activity. In kind it is biochemical. The protocol:
as §1, §2, §3, §4, §5, §6
1.3 Determination of the Inhibitory Activity of the Compounds on Lp-PLA2 (Rat Serum as the Source of Enzyme (In Vitro)
1) The corresponding reagents were added according to Table 5 and mixed uniformly by shaking.
as §7, §8

Assay [5] deals with spontaneous type 2 diabetes ZDF rats. The experiment in a line: Long-term administration in spontaneous type 2 diabetes ZDF rats (blood glucose and other biochemical indexes). In kind it is in vivo, rat. The source says: Positive control: metformin, produced by China-US Shanghai Squibb Pharmaceutical Co., Ltd.; dissolved in ultra-pure water.
Varieties: ZDF rats, ZL rats; Grade: SPF grade; Age: 56-62 days; Gender: Male; Source: Beijing Weitong Lihua Experimental Animal Co., Ltd.
The kits for total cholesterol (TC), triglyceride (TG), high density lipoprotein cholesterol (HDL-C), low density lipoprotein cholesterol (LDL-C), blood glucose (GLU), aspartate transferase (AST), alanine aminotransferase (ALT), alkaline phosphatase (ALP), urea (BUN), creatinine (CREA) and the like were purchased from Shanghai Shenneng Desai Diagnostic Technology Co., Ltd. The reagents for glycosylated hemoglobin (HbAlc) assay was purchased from Trinity Biotech Corporation. Insulin ELISA Assay Kit was purchased from BertinPharma Corporation. Urine microalbumin (mALB) and other ELISA kits were purchased from Nanjing Jiancheng Bioengineering Institute.
Two ZDF rat groups were orally administered with the compound of example 11 and metformin, respectively. […] The dose of metformin was 300 mg/kg/day. Both were administered for a period of 6 weeks.
Thirty male ZDF rats (56˜62 days old) were fed with Purina #5008 feed (purchased from Nongbiao Purina Feed Co., Ltd.) and the other 6 ZL rats were fed with normal diet as normal control. After fed for 2 weeks, the empty body weights of the fasting rats (fasting for 10 h, free to drink water) were weighed. 0.3 mL blood was collected through tail vein and placed in EDTA anticoagulant tube for the determination of glycosylated hemoglobin (HbAlc). Another 0.5 mL blood was collected and centrifugated at 3000 rpm for 10 min to separate serum which then was determined by automatic biochemical analyzer Model 7020. The serum was separated and then blood glucose and blood lipid (GLU, TC, TG) and hepatorenal function (ALT, AST, ALP, BUN, CREA) were determined. The ZDF rats with blood glucose far from the mean value or having other abnormal indexes were removed and 18 ZDF rats with GLU close to the mean value were selected.
Rats in each group were given the corresponding drug or solvent by gavage through oral once a day in the morning for 6 continuous weeks. Another 6 ZL rats were taken as normal control group.
Every 2 weeks the rats were fasted but allowed free drinking for 10 h, the empty body weight was weighed and 0.5 mL blood was collected through the tail vein to determine the blood glucose levels. The levels of insulin, glycosylated hemoglobin and triglyceride were measured at the 4th week of administration and at the end of the administration. The levels of low density lipoprotein and high density lipoprotein were measured at the 6th week of administration. The urine samples were collected once before the end of the administration and 24 h (11:00 am to 11:00 am the next day) urine samples were collected to detect urinary albumin content in urine.
Statistical analysis was performed with EXCEL 2007 software.

Setting [6] is: 10 nM compound, — = no inhibitory activity.
Setting [7] is: oral 25 then 10 mg/kg/day, 4 weeks after the administration.
[8] abbreviates: oral 25 then 10 mg/kg/day, 6 weeks after the administration.

As for `Cn1c(N2CCOCC2)cc(OCc2ccc(Oc3ccc(Cl)c(C(F)(F)F)c3)c(C#N)c2)nc1=O` [Example 27, 2-(4-chloro-3-(trifluoromethyl)phenoxy)-5-((1-methyl-6-morpholinyl-2-oxo-1,2-dihydropyrimidin-4-oxy)methyl)benzonitrile], in assay [1], the “retinal thickness compared with the model control group” value is given as “significantly decreased”.
Turning to `Cn1c(N2CCOCC2)cc(OCCc2cc(F)c(Oc3ccc(Cl)c(C(F)(F)F)c3)c(F)c2)nc1=O` [Example 5, 4-(4-(4-chloro-3-(trifluoromethyl)phenoxy)-3,5-difluorophenethyloxy)-1-methyl-6-morpholinopyrimidin-2(1H)-one], in assay [2], the inhibition at 0.01 µM is around 90% and the inhibition at 0.1 µM was determined as 100%. Besides, in assay [3], the inhibition at 0.01 µM was found to be 49.2%, the inhibition at 0.1 µM is 93.8% and the inhibition at 1 µM is 97.3%. Also, in assay [4] (setting [6]), the “inhibitory ratio, % on Lp-PLA2 (rat serum as the source of enzyme)” value (“inhibitory ratio, % on Lp-PLA2” for short) stood at 18.21%. In addition, the “inhibitory ratio, % on Lp-PLA2” value in assay [4] (100 nM compound) came out at 73.23%.
Turning to `COc1ccc(-c2cc(OCc3cc(F)c(Oc4ccc(Cl)c(C(F)(F)F)c4)c(F)c3)nc(=O)n2C)cc1` [Example 20, 4-((4-(4-chloro-3-(trifluoromethyl)phenoxy)-3,5-difluorobenzyl)oxy)-6-(4-methoxyphenyl)-1-methylpyrimidin-2(1H)-one], in assay [2], the inhibition at 0.01 µM stood at 46.9%. The inhibition at 0.1 µM in assay [2] turned out to be 90.4%; in assay [3], 54.2%. Besides, the figures for the “inhibitory ratio, % on Lp-PLA2” value in assay [4] (setting [6]) and in assay [4] (100 nM compound) were “—” and 43.27%, respectively.
In the case of `Cn1c(N2CCOCC2)cc(OCc2cc(F)c(Oc3ccnc(C(F)(F)F)c3)c(F)c2)nc1=O` [Example 29], in assay [3], the inhibition at 0.01 µM came out at 22.6%, the inhibition at 0.1 µM was 83.5% and the inhibition at 1 µM is 97.1%.
Regarding `CCn1c(N2CCOCC2)cc(OCc2cc(F)c(Oc3ccc(Cl)c(C(F)(F)F)c3)c(F)c2)nc1=O` [Example 34, 4-(4-(4-chloro-3-(trifluoromethyl)phenoxy-3,5-difluorobenzyl)oxy)-1-ethyl-6-morpholinopyrimidin-2(1H)-one], in assay [2], the inhibition at 0.01 µM turned out to be 53.9% and the inhibition at 0.1 µM is 95.6%. In addition, in assay [3], the inhibition at 0.1 µM turned out to be 54.1% and the inhibition at 1 µM came to 95.6%.
Take `CN(C)c1cc(OCc2cc(F)c(Oc3ccc(Cl)c(C(F)(F)F)c3)c(F)c2)nc(=O)n1C` [Example 11]: in assay [1], the “retinal thickness compared with the model control group” value is on record as “significantly decreased”. Further, the “blood glucose level compared with the model control group” value in assay [5] (oral 25 mg/kg/day first 4 days then 10 mg/kg/day, 2 weeks, 4 weeks and 6 weeks after administration) was “significantly decreased”. In addition, in assay [5] (setting [7]), the “insulin level compared with the model control group” value is “significantly increased” and the “triglyceride level compared with the model control group” value is “significantly decreased”. The “glycosylated hemoglobin levels compared to the model control group” value in assay [5] (oral 25 then 10 mg/kg/day, 4 weeks and 6 weeks after the administration) was “significantly reduced”. In addition, the “insulin level compared with the model control group” value in assay [5] (oral 25 then 10 mg/kg/day, 6 weeks) is “remarkably increased”. Besides, in assay [5] (setting [8]), the “high-density lipoprotein level compared with the model control group” value is “no significant change” and the “level of low-density lipoprotein compared with the model control group” value is “significantly reduced”. Moreover, the “urinary albumin levels in the urine compared with the model control group” value in assay [5] (oral 25 then 10 mg/kg/day, 24 h urine, 6 weeks after the administration) is reported as “significantly reduced”.
On to `Cn1c(N2CCOCC2)cc(OCc2cc(F)c(Oc3ccc(C(F)(F)F)nc3)c(F)c2)nc1=O` [Example 26], for which, in assay [3], the inhibition at 0.1 µM stood at 57.3% and the inhibition at 1 µM stood at 93.5%.
For the molecule `Cn1c(-c2ccccc2)cc(OCc2cc(F)c(Oc3ccc(Cl)c(C(F)(F)F)c3)c(F)c2)nc1=O` [Example 19, 4-((4-(4-chloro-3-(trifluoromethyl)phenoxy)-3,5-difluorobenzyl)oxy)-1-methyl-6-phenylpyrimidin-2(1H)-one], in assay [2], the inhibition at 0.01 µM turned out to be 53.6%. Besides, the inhibition at 0.1 µM amounted to 89.7% in assay [2] and 59.7% in assay [3]. In addition, the “inhibitory ratio, % on Lp-PLA2” value is reported as “—” in assay [4] (setting [6]) and 18.06% in assay [4] (100 nM compound).
On to `Cn1c(N2CCC(F)(F)C2)cc(OCc2cc(F)c(Oc3ccc(Cl)c(C(F)(F)F)c3)c(F)c2)nc1=O` [Example 16], for which, in assay [2], the inhibition at 0.01 µM was 55.3% and the inhibition at 0.1 µM is 92.4%. Besides, in assay [3], the inhibition at 0.01 µM worked out at 13.2%, the inhibition at 0.1 µM is 77.4% and the inhibition at 1 µM was 96.4%. Also, in assay [4] (setting [6]), the “inhibitory ratio, % on Lp-PLA2” value was determined as 6.84%. Further, in assay [4] (100 nM compound), the “inhibitory ratio, % on Lp-PLA2” value amounted to 50.35%.
As for `CCN(CC)CCN(Cc1ccc(-c2ccc(C(F)(F)F)cc2)cc1)C(=O)Cn1c(SCc2ccc(F)cc2)nc(=O)c2c1CCC2` [darapladib, reference compound], in assay [1], the “retinal thickness compared with the model control group” value was “significantly decreased”.
